Eight molecules from patent US20050143291A1, “Methods and compositions for modulating apoptosis” (priority 2003, published 2005) can be followed below.

One data set has as its system Control cells. Briefly: % Survival (Colony Assay), control cells. Type of data set: cell-based. As to the method: (§1) Experiments were also performed to determine the anti-apoptotic effect conferred by overexpression of GRP78. This task was completed.
(§2) Clonogenic Survival Assays—Four thousand cells were seeded into 10-cm-diameter dishes. […] After drug treatment, the cells were grown in fresh medium for 10 to 14 days. The colonies were washed with ice-cold PBS, fixed with methanol, and stained with 10% Giemsa staining solution. The surviving fraction was determined by dividing the number of the surviving colonies in the drug-treated cells by the number of colonies in the non-treated control groups.

Data set [1] concerns GRP78 Overexpression cells. Briefly: % Survival (Colony Assay), GRP78 overexpression. Type of data set: cell-based. Particulars: for % Survival (Colony Assay): GRP78 Overexpression; for effect of GRP78 overexpression on sensitivity to the drug: GRP78 overexpression versus control. The method, then: as §1, §2
Another data set relates to caspase-7. Put plainly: In vitro caspase-7 activation assay, cell-free extracts with cytochrome c and dATP. The class given is biochemical, Chinese hamster. As to the method: FIG. 5, Panel C depicts cytoplasmic extracts prepared from CHO and C.1 cells and incubated with (+) or without (−) 10 μM cytochrome c and the various amounts of dATP (mM) as indicated.
Among the executor caspases, caspase-7 has been reported to be associated with the ER. Upon induction of apoptosis, procaspase-7 (35 kDa) is first converted into a 32-kDa intermediate, which is further processed into active 20- and 11-kDa subunits. […] Upon longer exposure of the autoradiogram, the active 20- and 11-kDa forms were evident in the etoposide-treated cells. When GRP78 was overexpressed, a low level of caspase-7 activation was detected in both the non-treated and etoposide-treated cells. […] In addition, upon addition of cytochrome c, caspase-7 activation was higher in CHO cells than C.1 cells, as evidenced by the increase in the active 20- and 11-kDa forms in the CHO samples compared with the C.1 samples.
The cells were suspended in 5 volumes of a hypotonic buffer (5 mM Tris-HCl, pH 7.4, 5 mM KCl, 1.5 mM MgCl2, 0.1 mM EGTA, pH 8.0, and 1 mM dithiothreitol) in the presence of 2 μg/ml leupeptin, pepstatin, and aprotinin protease inhibitors. After incubation on ice for 20 min, sucrose was added to a final concentration of 250 mM, and the cells were disrupted by douncing eight times in a 1-ml Wheaton Dounce homogenizer. The homogenate was centrifuged twice at […] for 10 min. […]

The next data set deals with CHO cells. Briefly: Cell cycle analysis (FACS), CHO cells. Type of data set: cell-based, Chinese hamster. The conditions noted are these: CHO cells treated with UPR inducer, versus exponentially growing cells. As to the method:
(§3) Cell Cycle Analysis—Following seeding, exponentially growing cells were trypsinized at different days and fixed in 70% ethanol. The fixed cells were treated with PBS containing 0.1% (v/v) Triton X-100, 0.2 mg/ml DNase-free RNase, and 20 μg/ml propidium iodide (PI) for 30 min at room temperature. The cell cycle distributions were analyzed by fluorescence-activated cell sorting (FACS) analysis (FACstar; BD Biosciences). The cell cycle distribution measurements were repeated three to four times.
(§4) In both the vector-transfected and GRP78 overexpressing cells, the percentage of G1, S, and G2 cells is similar.

The next data set relates to T24/83 cells. Put plainly: Cell cycle analysis (FACS), T24/83 cells. The conditions noted are these: T24/83 cells treated with UPR inducer. Type of data set: cell-based, human. The method, then:
as §3, §4

Data set [2] has as its system GRP78. Put plainly: Specificity of Grp78 siRNA in 293T cells (Western blot of GRP78, GRP94, HSP70). Particulars: β-actin loading control. Type of data set: cell-based, human. The source says:
(§5) The concentrations of siRNA Grp78 II used were indicated on top.
When blasted against the human genomic sequence, this sequence is unique and in principle, should not affect any other human gene. […] The level of β-actin was used as loading control.
For orientation: A western blot detects proteins with antibodies after separation by electrophoresis.

Data set [3] concerns GRP78. Briefly: Suppression of GRP78 level by siRNA in MDA-MB-435 cells (Western blot). The class given is cell-based, human.
Source text: as §5
(§6) This translates to more death in the cells treated with Grp78(II) siRNA than control siRNA targeted against the unrelated green fluorescence protein (FIG. 16).

A further data set relates to MDA-MB-435 cells. Put plainly: Etoposide-mediated cell death after siRNA in breast cancer cells. The class given is cell-based, human.
Source text: as §6

Data set [4] addresses T1, glucose regulated protein 78 (GRP78), wild-type, as present in CHO cells (endogenous) and C.1 cells … (hamster, UniProt G3I8R9 19-654).
T1 construct: Protein in cell lysates used for co-immunoprecipitation, not purified; also called BiP; wild-type GRP78
Briefly: co-immunoprecipitation from CHO and C.1 whole cell extracts, Western blot.
Experimental: Co-immunoprecipitation Assays—2×10⁶ cells were lysed in 400 μl of extraction buffer (50 mM Tris-HCl, pH 7.5, 150 mM NaCl, 0.5% Nonidet P-40, and 0.5% deoxycholate, with protease inhibitor tablet (Roche Molecular Biochemicals)) and frozen and thawed three times. 500 μg of total protein extract from each sample was pretreated with 50 μl of protein A-Sepharose beads (Sigma) for 1 h at 4° C. prior to incubation with 5 μg of either anti-caspase-7 mouse monoclonal antibody or anticaspase-3 antibodies for 2 h. Following the incubation period, 50 μl of protein A-Sepharose beads was added, and the mixtures were rotated at 4° C. overnight. The beads were then washed five times with the extraction buffer. The immunoprecipitate was released from the washed beads by the addition of 30 μl of 1×SDS-PAGE sample loading buffer (50 mM Tris-HCl, pH 6.8, 100 mM dithiothreitol, 2% SDS, 0.1% bromphenol blue, 10% glycerol), followed by heating at 100° C. for 10 min. The supernatant obtained after centrifugation was resolved by SDS-PAGE and subjected to Western blot analysis to detect the co-immunoprecipitated proteins.

Bounds are passed on as bounds.

T1 sequence (G3I8R9 19-654 limits assumed): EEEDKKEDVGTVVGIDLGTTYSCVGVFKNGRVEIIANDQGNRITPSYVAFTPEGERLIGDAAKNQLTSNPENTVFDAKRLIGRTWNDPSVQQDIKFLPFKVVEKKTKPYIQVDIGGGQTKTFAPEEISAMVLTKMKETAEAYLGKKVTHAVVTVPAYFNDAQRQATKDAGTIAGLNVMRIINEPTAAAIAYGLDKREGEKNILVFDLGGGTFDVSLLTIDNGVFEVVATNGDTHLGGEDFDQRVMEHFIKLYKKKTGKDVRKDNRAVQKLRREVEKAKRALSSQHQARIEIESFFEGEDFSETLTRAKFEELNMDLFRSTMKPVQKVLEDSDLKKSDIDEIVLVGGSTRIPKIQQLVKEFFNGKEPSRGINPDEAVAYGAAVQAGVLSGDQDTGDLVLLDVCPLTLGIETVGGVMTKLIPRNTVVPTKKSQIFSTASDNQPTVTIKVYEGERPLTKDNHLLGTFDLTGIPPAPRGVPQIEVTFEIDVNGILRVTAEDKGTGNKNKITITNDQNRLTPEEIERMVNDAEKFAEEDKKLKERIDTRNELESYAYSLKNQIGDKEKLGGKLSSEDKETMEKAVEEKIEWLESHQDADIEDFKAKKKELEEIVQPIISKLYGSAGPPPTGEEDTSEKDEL

Consider `CC[C@@]1(O)C(=O)OCc2c1cc1n(c2=O)Cc2cc3ccccc3nc2-1` [Camptothecin], for which the “% Survival (Colony Assay)” value with Control cells (camptothecin 5 ng/ml) was 68%; in the data set on Control cells (camptothecin 20 ng/ml) it was 0.7%; with Control cells (camptothecin 60 ng/ml), 0%; in [1] (camptothecin 5 ng/ml) it was 82%; in [1] (camptothecin 20 ng/ml) it was 22%; in [1] (camptothecin 60 ng/ml) it was 2%. Also, the “effect of GRP78 overexpression on sensitivity to the drug” value (shortened to “effect of GRP78 overexpression”) in [1] is on record as “confers resistance”.
In the case of `N.N.[Cl][Pt][Cl]` [Cisplatin], the “% Survival (Colony Assay)” value is on record as 43% in the data set on Control cells (cisplatin 3.3 μM); 3.7% in the data set with Control cells (cisplatin 6.6 μM); 0% in the data set on Control cells (cisplatin 9.9 μM); 0% in the data set on Control cells (cisplatin 13.0 μM); 60% in data set [1] (cisplatin 3.3 μM); 50% in data set [1] (cisplatin 6.6 μM). Besides, the figures for the “% Survival (Colony Assay)” value in [1] (cisplatin 9.9 μM) and in data set [1] (cisplatin 13.0 μM) were 27% and 16%, respectively. Also, the “effect of GRP78 overexpression” value in data set [1] is “confers resistance”.
Turning to `COc1cccc2c1C(=O)c1c(O)c3c(c(O)c1C2=O)C[C@@](O)(C(=O)CO)C[C@@H]3O[C@H]1C[C@H](N)[C@H](O)[C@H](C)O1` [Doxorubicin], the “% Survival (Colony Assay)” value with Control cells (doxorubicin 0.2 μg/ml) is 80%; in the data set with Control cells (doxorubicin 0.4 μg/ml), 42%; in the data set on Control cells (doxorubicin 0.6 μg/ml) it was 2%; in the data set with Control cells (doxorubicin 0.8 μg/ml) it was 0%; with Control cells (doxorubicin 1.0 μg/ml) it was 0%; in [1] (doxorubicin 0.2 μg/ml), 95%. Also, the “% Survival (Colony Assay)” value in [1] (doxorubicin 0.4 μg/ml) is given as 84%; in [1] (doxorubicin 0.6 μg/ml) it was 68%; in data set [1] (doxorubicin 0.8 μg/ml) it was 48%; in data set [1] (doxorubicin 1.0 μg/ml), 32%. In addition, the “effect of GRP78 overexpression” value in [1] is “confers resistance”.
In the case of `Nc1ncnc2c1ncn2[C@H]1C[C@H](O)[C@@H](COP(=O)(O)OP(=O)(O)OP(=O)(O)O)O1` [dATP], the “caspase-7 forms in CHO versus C.1 extracts” value in the data set on caspase-7 (1 mM dATP with cytochrome c) is “equivalent amounts of the 32- and 20-kDa forms”. Also, in the data set with caspase-7 (C.1 extracts in the presence of both cytochrome c and dATP), the “effect on GRP78-mediated suppression of caspase-7 activation” value is given as “suppressive effect of the C.1 samples was reversed”.
Consider `C/C=C(/C)C(=O)O[C@H]1C(C)=C2[C@H]([C@@H]1OC(=O)CCCCCCC)[C@@](C)(OC(C)=O)C[C@H](OC(=O)CCC)[C@@]1(O)[C@H]2OC(=O)[C@@]1(C)O` [thapsigargin], for which the cell cycle distribution result in the data set with CHO cells was “more cells in G1 and a dramatic reduction in S phase cells”; in the data set with T24/83 cells, “a higher percentage of G1 cells and a lower percentage in S phase”.
In the case of “Grp78(II) siRNA: siRNA duplex 5′ AAGGTTACCCATGCAGTTGTT 3′ (SEQ ID NO:4) and complement (SEQ ID NO:17) targeting GRP78 (antisense AACAACTGCATGGGTAACCTT; listed as DNA, chemistry not given here; listed as Homo sapiens)”, in the data set on GRP78 [2], the “effect on GRP78, GRP94 and HSP70 levels” value is “only GRP78 level is suppressed”. For the same molecule, in the data set on GRP78 [3], the “siRNA concentration that significantly suppresses GRP78 level” value is given as ≥ 80 nM. Also, the “cell death versus control siRNA against green fluorescence protein” value in the data set on MDA-MB-435 cells is on record as “more death”.
As for tunicamycin, the cell cycle distribution entry in the data set with CHO cells was “more cells in G1 and a dramatic reduction in S phase cells”; in the data set with T24/83 cells, “a higher percentage of G1 cells and a lower percentage in S phase”.

B1: procaspase-3 (endogenous, CHO and C.1 cells) (enzyme)
chain: MENTENSVDSKSIKNLEPKIIHGSESMDSGISLDNSYKMDYPEMGLCIIVNNKNFHKSTGMTSRSGTDVDAANLRETFRNLKYGVRNKNDLTREGIVELMRDVSKEDHSKRSSFVCVLLSHGEEGIIFGTNGPVDLKKITNFFRGDRCRSLTGKPKLFIIQACRGTELDCGIETDSGVGDDMACHKIPVEADFLYAYSTAPGYYSWRNSKDGSWFIQSLCAMLKQYADKLEFMHILTRVNRKVATEFESFSFDATFHAKKQIPCIVSMLTKELYFYH
notes: Zymogen form, in whole cell extracts
Take B1: in data set [4], the binding result is “no binding”.
